Laboratory results reported in ChEMBL document CHEMBL1134698 (Bioorg Med Chem Lett, 2001).

How the values were obtained:
[1] = target: Monoamine transporters; serotonin & dopamine (Homo sapiens) (UniProt P31645+Q01959); experiment: Selectivity was measured as SERT/DAT; assay type: protein assay
[2] = organism: Rattus norvegicus; experiment: Inhibition of [3H]dopamine reuptake in rat […]; assay type: functional
[3] = target: Norepinephrine transporter (Rattus norvegicus, UniProt Q9WTR4); experiment: Binding affinity was evaluated by measuring inhibiting the binding of [3H]nisoxetine to Norepinephrine transporter in rat brain tissue; assay type: tissue-based
[4] = target: Sodium-dependent serotonin transporter (Rattus norvegicus, UniProt P31652); experiment: Binding affinity was evaluated by measuring inhibiting the binding of [3H]citalopram to Serotonin transporter in rat brain tissue; assay type: tissue-based
[5] = target: Sodium-dependent dopamine transporter (Rattus norvegicus, UniProt P23977); experiment: Binding affinity was evaluated by measuring the inhibition of [3H]WIN-35428 binding to Dopamine transporter in rat brain tissue; assay type: tissue-based
Sodium-dependent dopamine transporter, sequence (P23977 whole entry): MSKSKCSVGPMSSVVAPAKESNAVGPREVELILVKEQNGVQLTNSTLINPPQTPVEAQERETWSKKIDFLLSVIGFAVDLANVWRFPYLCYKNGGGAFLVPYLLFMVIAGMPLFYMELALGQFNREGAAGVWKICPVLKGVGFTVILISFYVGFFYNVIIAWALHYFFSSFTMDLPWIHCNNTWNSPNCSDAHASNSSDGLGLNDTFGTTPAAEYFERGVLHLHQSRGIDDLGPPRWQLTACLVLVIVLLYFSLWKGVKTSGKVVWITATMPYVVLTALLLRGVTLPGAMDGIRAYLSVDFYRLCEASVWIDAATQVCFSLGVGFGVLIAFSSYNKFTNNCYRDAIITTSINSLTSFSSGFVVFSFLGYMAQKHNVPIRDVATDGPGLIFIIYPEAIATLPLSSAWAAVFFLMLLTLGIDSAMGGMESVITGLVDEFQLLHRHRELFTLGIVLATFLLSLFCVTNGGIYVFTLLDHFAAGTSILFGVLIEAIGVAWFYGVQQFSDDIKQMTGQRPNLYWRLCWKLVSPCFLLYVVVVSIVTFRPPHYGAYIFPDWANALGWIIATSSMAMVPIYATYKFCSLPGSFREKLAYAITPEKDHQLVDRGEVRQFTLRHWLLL

Norepinephrine transporter, sequence (Q9WTR4 whole entry): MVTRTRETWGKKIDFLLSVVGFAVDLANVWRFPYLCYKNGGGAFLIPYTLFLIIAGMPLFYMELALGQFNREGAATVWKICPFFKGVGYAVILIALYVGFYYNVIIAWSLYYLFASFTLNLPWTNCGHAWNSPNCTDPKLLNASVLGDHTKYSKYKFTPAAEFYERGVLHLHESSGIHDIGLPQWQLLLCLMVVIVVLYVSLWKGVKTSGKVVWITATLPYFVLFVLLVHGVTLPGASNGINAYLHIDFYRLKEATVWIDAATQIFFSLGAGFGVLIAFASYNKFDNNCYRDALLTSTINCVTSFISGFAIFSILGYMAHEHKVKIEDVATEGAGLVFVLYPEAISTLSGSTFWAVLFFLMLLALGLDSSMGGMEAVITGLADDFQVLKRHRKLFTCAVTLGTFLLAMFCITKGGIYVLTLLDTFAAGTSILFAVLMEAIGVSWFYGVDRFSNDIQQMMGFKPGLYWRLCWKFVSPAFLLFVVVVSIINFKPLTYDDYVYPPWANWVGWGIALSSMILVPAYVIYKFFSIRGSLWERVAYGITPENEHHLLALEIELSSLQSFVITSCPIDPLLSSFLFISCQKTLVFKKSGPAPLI
Sodium-dependent serotonin transporter, sequence (P31652 whole entry): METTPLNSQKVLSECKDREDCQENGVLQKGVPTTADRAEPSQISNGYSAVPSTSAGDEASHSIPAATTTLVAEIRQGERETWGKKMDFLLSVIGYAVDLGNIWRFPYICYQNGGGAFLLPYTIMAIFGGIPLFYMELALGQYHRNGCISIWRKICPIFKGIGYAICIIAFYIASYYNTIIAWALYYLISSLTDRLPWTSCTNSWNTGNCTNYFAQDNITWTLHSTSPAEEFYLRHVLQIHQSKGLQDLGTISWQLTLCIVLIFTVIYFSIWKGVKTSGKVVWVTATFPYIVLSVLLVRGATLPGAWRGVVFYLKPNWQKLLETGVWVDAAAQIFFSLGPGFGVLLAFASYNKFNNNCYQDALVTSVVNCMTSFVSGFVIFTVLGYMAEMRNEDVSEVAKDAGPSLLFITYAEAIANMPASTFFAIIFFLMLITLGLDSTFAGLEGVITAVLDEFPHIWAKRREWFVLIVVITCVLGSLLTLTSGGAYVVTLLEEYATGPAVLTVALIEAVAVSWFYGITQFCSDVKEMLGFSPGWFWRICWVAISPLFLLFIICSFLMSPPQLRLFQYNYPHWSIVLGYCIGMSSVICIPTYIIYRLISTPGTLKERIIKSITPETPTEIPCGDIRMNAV
Monoamine transporters; serotonin & dopamine (Homo sapiens), sequence (P31645 whole entry, looked up): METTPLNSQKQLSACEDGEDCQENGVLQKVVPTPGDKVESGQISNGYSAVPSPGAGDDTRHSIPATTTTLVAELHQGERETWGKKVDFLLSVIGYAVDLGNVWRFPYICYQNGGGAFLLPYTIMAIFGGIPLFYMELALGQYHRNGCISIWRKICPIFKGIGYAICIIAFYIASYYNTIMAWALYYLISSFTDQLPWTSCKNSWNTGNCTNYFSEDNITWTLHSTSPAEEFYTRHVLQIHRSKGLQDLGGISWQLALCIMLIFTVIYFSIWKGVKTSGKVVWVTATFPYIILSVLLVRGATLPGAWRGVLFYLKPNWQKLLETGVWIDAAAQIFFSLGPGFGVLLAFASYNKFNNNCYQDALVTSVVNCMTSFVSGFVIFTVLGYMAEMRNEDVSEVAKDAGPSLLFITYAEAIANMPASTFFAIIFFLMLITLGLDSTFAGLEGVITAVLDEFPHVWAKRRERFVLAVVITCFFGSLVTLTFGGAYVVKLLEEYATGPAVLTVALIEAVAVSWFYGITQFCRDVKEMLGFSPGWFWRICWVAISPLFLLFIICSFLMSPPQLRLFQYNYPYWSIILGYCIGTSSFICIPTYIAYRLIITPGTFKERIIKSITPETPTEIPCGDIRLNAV
Monoamine transporters; serotonin & dopamine (Homo sapiens), sequence (Q01959 whole entry, looked up): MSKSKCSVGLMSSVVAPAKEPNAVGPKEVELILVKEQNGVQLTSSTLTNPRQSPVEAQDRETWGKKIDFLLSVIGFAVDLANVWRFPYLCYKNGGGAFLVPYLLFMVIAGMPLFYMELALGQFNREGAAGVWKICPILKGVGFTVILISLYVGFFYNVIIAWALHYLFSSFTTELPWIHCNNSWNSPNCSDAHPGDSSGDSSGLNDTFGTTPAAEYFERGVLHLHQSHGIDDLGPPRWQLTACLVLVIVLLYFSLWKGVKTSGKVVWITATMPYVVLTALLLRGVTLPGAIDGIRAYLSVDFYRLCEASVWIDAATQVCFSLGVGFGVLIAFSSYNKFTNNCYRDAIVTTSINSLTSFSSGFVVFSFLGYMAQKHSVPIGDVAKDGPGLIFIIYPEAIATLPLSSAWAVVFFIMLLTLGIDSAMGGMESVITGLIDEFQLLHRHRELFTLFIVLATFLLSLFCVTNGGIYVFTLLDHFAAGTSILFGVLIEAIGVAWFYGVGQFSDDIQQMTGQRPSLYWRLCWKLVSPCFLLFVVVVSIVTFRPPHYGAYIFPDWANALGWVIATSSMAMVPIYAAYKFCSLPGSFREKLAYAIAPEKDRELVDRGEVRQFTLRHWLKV

Row | SMILES | Selectivity [1] | IC50 [2] | IC50 [3] | IC50 [4] | IC50 [5] | IC50 ([2]; Rattus norvegicus)
1 | Fc1ccc(CN2CCC(CNCC(c3ccccc3)c3ccccc3)CC2)cc1 | 6.9 |  |  |  |  | 
2 | Fc1ccc(CNC2CCC(C(c3ccccc3)c3ccccc3)NC2)cc1 (cis isomer) [listing 1 of 2 here] |  | 28.9 nM | 1350 nM | 2810 nM |  | 
3 | Fc1ccc(CNC2CCC(C(c3ccccc3)c3ccccc3)NC2)cc1 (cis isomer) [listing 2 of 2 here] | 93.7 |  |  |  |  | 
4 | O=C(NC1CCC(C(c2ccccc2)c2ccccc2)NC1)c1ccc(F)cc1 (racemic) | 71.4 |  | 5610 nM | 6210 nM | 87 nM | 
5 | COC(=O)[C@@H]1C2CC[C@@H](C[C@@H]1OC(=O)c1ccccc1)N2C (single isomer, unassigned) [COCAINE] |  |  |  |  |  | 191 nM
6 | Fc1ccc(CNC2CCC(C(c3ccccc3)c3ccccc3)NC2)cc1 (stereo in doubt) [listing 1 of 2 here] |  | 106 nM | 4470 nM | 1330 nM | 21.2 nM | 
7 | Fc1ccc(CNC2CCC(C(c3ccccc3)c3ccccc3)NC2)cc1 (stereo in doubt) [listing 2 of 2 here] | 6.28 |  |  |  |  | 
